# Assay results published in BindingDB's records for doi:10.1016/j.bmcl.2019.05.020 (Meiji Pharmaceutical University, 2019).
# Target: Amyloid-beta precursor protein (Homo sapiens, UniProt P05067)
# Assay: Inhibition of human amyloid beta (1 to 40) assessed as reduction in aggregation measured after 24 hrs by ThT fluorescence assay
# Amyloid-beta precursor protein, sequence (P05067 whole entry): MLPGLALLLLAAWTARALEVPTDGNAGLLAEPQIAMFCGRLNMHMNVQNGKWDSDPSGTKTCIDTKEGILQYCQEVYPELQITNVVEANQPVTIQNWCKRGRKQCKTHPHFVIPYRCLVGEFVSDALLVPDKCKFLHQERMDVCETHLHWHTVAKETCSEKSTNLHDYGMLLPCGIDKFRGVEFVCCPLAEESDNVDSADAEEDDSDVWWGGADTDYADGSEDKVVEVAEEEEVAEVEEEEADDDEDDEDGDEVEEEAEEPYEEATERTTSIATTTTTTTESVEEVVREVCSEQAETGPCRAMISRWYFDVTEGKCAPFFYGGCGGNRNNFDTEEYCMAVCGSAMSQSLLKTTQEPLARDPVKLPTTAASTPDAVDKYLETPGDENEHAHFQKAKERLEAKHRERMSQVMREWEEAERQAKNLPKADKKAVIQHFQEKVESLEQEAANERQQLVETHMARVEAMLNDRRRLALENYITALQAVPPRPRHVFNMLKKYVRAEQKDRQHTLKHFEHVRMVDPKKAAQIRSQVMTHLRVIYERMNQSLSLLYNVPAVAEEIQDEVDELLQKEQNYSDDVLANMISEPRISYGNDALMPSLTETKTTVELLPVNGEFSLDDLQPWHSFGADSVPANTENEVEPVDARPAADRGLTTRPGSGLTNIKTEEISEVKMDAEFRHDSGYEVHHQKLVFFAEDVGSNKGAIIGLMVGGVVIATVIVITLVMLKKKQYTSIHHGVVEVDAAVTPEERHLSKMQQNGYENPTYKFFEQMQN
row,IC50 [µM],SMILES
1,> 50,"COc1ccc(-c2cc(=O)c3c(O)cc(OC)c(-c4cc(-c5cc(O)c6c(=O)cc(OC)cc-6o5)ccc4OC)c3o2)cc1 [7,4',7'',4'''-O-methyl-amentoflavone]"
2,> 50,COc1ccc(-c2cc(=O)c3c(O)cc(OC)c(-c4cc(-c5cc(O)c6c(=O)cc(OC)cc-6o5)ccc4O)c3o2)cc1 [heveaflavone]
3,> 50,COc1ccc(-c2cc(=O)c3c(O)cc(OC)c(-c4cc(-c5cc(O)c6c(=O)cc(O)cc-6o5)ccc4OC)c3o2)cc1 [kayaflavone]
4,> 50,COc1ccc(-c2cc(=O)c3c(O)cc(O)c(-c4cc(-c5cc(O)c6c(=O)cc(OC)cc-6o5)ccc4OC)c3o2)cc1 [sciadopitisin]

# The next lines start with the molecule.
row,SMILES,IC50 [µM]
1,COc1ccc(-c2cc(=O)c3c(O)cc(O)c(-c4cc(-c5cc(O)c6c(=O)cc(O)cc-6o5)ccc4O)c3o2)cc1 [4'''-methylamentoflavone],4.9
2,"COc1ccc(-c2cc(O)c3c(=O)cc(O)cc-3o2)cc1-c1c(OC)cc(O)c2c(=O)cc(-c3ccc(O)cc3)oc12 [4',7''-di-O-methyl-amentoflavone]",> 50
3,COc1cc2oc(-c3ccc(OC)c(-c4c(OC)cc(O)c5c(=O)cc(-c6ccc(O)cc6)oc45)c3)cc(O)c-2c(=O)c1 [7-O-methyl-isoginkgetin],> 50
4,COc1cc2oc(-c3ccc(O)c(-c4c(O)cc(O)c5c(=O)cc(-c6ccc(O)cc6)oc45)c3)cc(O)c-2c(=O)c1 [sequoiaflavone],4.9
5,COc1cc(O)c2c(=O)cc(-c3ccc(O)cc3)oc2c1-c1cc(-c2cc(O)c3c(=O)cc(O)cc-3o2)ccc1O [sotetsuflavone],> 50
